Data as given in the supplement of paper PMC10307832.

How the values were obtained:
Experiment in all cases: relative viability (nuclei count vs DMSO), 5 days (fraction); higher = more cells survive
AZD5582 + Palbociclib = compound: C[C@@H](C(=O)N[C@@H](C1CCCCC1)C(=O)N2CCC[C@H]2C(=O)N[C@@H]3[C@@H](CC4=CC=CC=C34)OCC#CC#CCO[C@@H]5CC6=CC=CC=C6[C@@H]5NC(=O)[C@@H]7CCCN7C(=O)[C@H](C8CCCCC8)NC(=O)[C@H](C)NC)NC [AZD5582] + CC(=O)c1c(C)c2cnc(Nc3ccc(N4CCNCC4)cn3)nc2n(C2CCCC2)c1=O [Palbociclib] (partner 0.5 µM)
In short: (§1)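 A single step with final 0.05% Triton X-100, 1% formaldehyde and 1 ug/ml Hoechst fixed the cells and stained nuclei 5 days after treatment. Lung cancer cell lines in 1536-well plates had been treated by pin tool the day after seeding with one drug alone or a fixed anchor-drug dose plus five library-drug doses (not always all listed) in √10 steps, and nuclei were counted on 4× images. Relative viability is the ratio of nuclei in treated wells to nuclei in vehicle wells, taken as the median of duplicate plates.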

AZD5582 + Crizotinib = compound: C[C@@H](C(=O)N[C@@H](C1CCCCC1)C(=O)N2CCC[C@H]2C(=O)N[C@@H]3[C@@H](CC4=CC=CC=C34)OCC#CC#CCO[C@@H]5CC6=CC=CC=C6[C@@H]5NC(=O)[C@@H]7CCCN7C(=O)[C@H](C8CCCCC8)NC(=O)[C@H](C)NC)NC [AZD5582] + C[C@@H](Oc1cc(-c2cnn(C3CCNCC3)c2)cnc1N)c1c(Cl)ccc(F)c1Cl [Crizotinib] (partner 1 µM)
In short: as §1

[1] = compound: Cn1nnc2c(C(N)=O)ncn2c1=O [Temozolomide] + CC(C)C[C@H](NC(=O)[C@H](Cc1ccccc1)NC(=O)c1cnccn1)B(O)O [Bortezomib] (partner 0.002 µM)
In short: as §1

[2] = compound: Cn1nnc2c(C(N)=O)ncn2c1=O [Temozolomide] + O=C(CCCCCCC(=O)Nc1ccccc1)NO [Vorinostat] (partner 1 µM)
In short: as §1

Cell Line | relative viability (AZD5582 + Palbociclib; first compound 0.001581 µM) | relative viability (AZD5582 + Palbociclib; first compound 0.005 µM) | relative viability (AZD5582 + Palbociclib; first compound 0.01581 µM) | relative viability (AZD5582 + Palbociclib; first compound 0.05 µM) | relative viability (AZD5582 + Crizotinib; first compound 0.001581 µM) | relative viability (AZD5582 + Crizotinib; first compound 0.005 µM) | relative viability (AZD5582 + Crizotinib; first compound 0.01581 µM) | relative viability (AZD5582 + Crizotinib; first compound 0.05 µM) | relative viability ([1]; first compound 0.2 µM) | relative viability ([1]; first compound 0.6325 µM) | relative viability ([1]; first compound 2 µM) | relative viability ([1]; first compound 6.325 µM) | relative viability ([1]; first compound 20 µM) | relative viability ([2]; first compound 0.2 µM) | relative viability ([2]; first compound 0.6325 µM) | relative viability ([2]; first compound 2 µM) | relative viability ([2]; first compound 6.325 µM) | relative viability ([2]; first compound 20 µM)
201T | 0.375 | 0.357 | 0.316 | 0.43 | 1.09 | 1.12 | 1.04 | 1.25 | 1.15 | 1.08 | 1.08 | 1.07 | 1.08 | 0.942 | 0.939 | 1.04 | 0.91 | 0.867
A549 |  |  |  |  | 0.504 | 0.923 | 0.667 | 0.826 |  |  |  |  |  |  |  |  |  | 
A-427 | 0.462 | 0.473 | 0.528 | 0.495 | 0.623 | 0.751 | 0.97 | 0.618 | 1 | 0.934 | 0.993 | 0.87 | 0.616 | 0.883 | 0.896 | 0.837 | 0.685 | 0.569
ABC-1 | 0.658 | 0.834 | 0.492 | 0.625 | 0.737 | 0.863 | 1.04 | 0.919 | 0.351 | 0.274 | 0.383 | 0.315 | 0.256 | 1.48 | 0.771 | 0.907 | 1.21 | 1.08
BEN | 0.416 | 0.466 | 0.497 | 0.435 | 0.658 | 0.784 | 0.979 | 0.848 | 0.965 | 0.77 | 0.911 | 0.577 | 0.588 | 0.567 | 0.558 | 0.652 | 0.58 | 0.552
CAL-12T | 0.2 | 0.225 | 0.309 | 0.159 |  | 0.175 | 0.531 | 0.192 |  | 0.964 | 0.945 | 1.04 | 0.967 | 0.889 | 0.881 | 0.885 | 0.781 | 0.628
COR-L23 | 0.238 | 0.329 | 0.269 | 0.305 | 0.539 | 0.682 | 0.629 | 0.796 | 1.15 | 1.12 | 1.08 | 1.06 | 0.963 | 0.521 | 0.531 | 0.521 | 0.476 | 0.371
COR-L 105 | 0.383 | 0.394 | 0.415 | 0.452 | 0.667 | 0.82 | 0.684 | 0.817 | 0.646 | 0.683 | 1.01 | 0.756 | 0.32 | 0.769 | 0.645 | 0.922 | 0.837 | 0.7
Calu-6 |  |  |  |  | 0.432 | 0.384 | 0.837 | 0.336 | 1.11 | 0.866 | 1.25 | 0.955 | 1.02 |  |  |  |  | 
ChaGo-K-1 | 0.882 | 0.943 | 0.921 | 1.01 | 0.988 | 1.1 | 1.13 | 1.23 | 1.17 | 0.955 | 1.21 | 0.967 | 0.985 | 0.85 | 0.724 | 0.719 | 0.738 | 0.733
EBC-1 |  |  |  |  | 0.178 | 0.233 | 0.181 | 0.208 | 0.601 | 0.577 | 0.549 | 0.544 | 0.575 |  |  |  |  | 
EKVX | 0.378 | 0.425 | 0.298 | 0.393 | 0.713 | 0.9 | 0.753 | 0.96 | 0.991 | 1.1 | 1.06 | 0.996 | 0.884 |  | 0.745 | 0.691 | 0.794 | 0.395
EMC-BAC-2 | 0.472 | 0.527 | 0.503 | 0.513 | 0.637 | 0.551 | 0.682 | 0.236 | 0.977 | 1.13 | 1.02 | 1.01 | 1.04 | 0.831 | 0.628 | 0.454 | 0.398 | 0.437
EPLC-272H | 0.165 |  | 0.32 | 0.127 | 0.187 | 0.131 | 0.746 | 0.0674 | 1.02 | 1.05 | 0.91 | 0.832 | 0.805 | 0.386 | 0.545 | 0.527 | 0.407 | 0.508
H3255 | 0.29 | 0.306 | 0.302 | 0.318 | 0.825 | 0.712 | 0.743 | 0.756 |  | 0.755 | 0.849 | 0.824 | 0.213 |  | 0.793 | 0.77 | 0.535 | 0.23
HARA | 0.257 | 0.275 | 0.233 | 0.318 | 1.01 | 0.894 | 1.04 | 1 | 1.26 | 1.16 | 1.24 | 1.14 | 1.05 | 0.575 | 0.514 | 0.511 | 0.573 | 0.521
HCC-15 | 0.501 | 0.582 | 0.615 | 0.309 | 0.646 | 0.536 | 0.754 | 0.455 | 1.02 | 1.06 | 1.05 | 0.975 | 1.1 | 0.79 | 0.847 | 0.791 | 0.695 | 0.806
HCC-44 | 0.906 | 0.931 | 1.02 | 0.928 | 0.5 | 0.457 | 0.793 | 0.378 | 0.938 | 0.855 | 0.869 | 0.827 | 0.988 | 1.15 | 1.09 | 1.02 | 1.16 | 1.06
HCC-78 | 0.435 | 0.474 | 0.474 | 0.432 | 0.294 | 0.353 | 0.312 | 0.426 |  | 0.524 | 0.537 | 0.515 | 0.567 | 0.372 | 0.433 | 0.429 |  | 0.431
